Laboratory results taken from US9453006B2, “Crystalline form having specific crystal habit and pharmaceutical composition containing this crystalline form as active ingredient” (POLA PHARMA INC., priority 2013, dated 2016).

How the values were obtained:
Trichomonas = assay: Anti-Trichomonas effect, number of survived protozoa after 72 hours culture at 37° C. (Example 4); type: cell-based; conditions: for Number of survived protozoa: cultured 72 hours at 37° C.
Method: Each of Crystal 1 and Crystal 2 was correctly weighed in an amount of 3.45 mg, which was dissolved in 10 mL of ethanol, in the same manner as in Example 3. After confirming the absence of the crystal by visual observation, 100 μL of the solution was used as an aliquot, and 900 μL of physiological saline was added thereto. The resultant solution was subjected to the sterilizing filtration by using a filter having a pore size of […] a sample or specimen. 0.5 mL of each of the specimens was added to “Trichomonas medium F” (produced by Fuji Pharma Co., Ltd.). Further, 100 μL of Trichomonas culture, which had been precultured and prepared to give 2.7×10^5 individuals/mL by adding the medium, was added, followed by being cultured for 72 hours at 37° C. (final concentration: 2.4 μg/mL). After completing the cultivation, the number of survived individuals of Trichomonas was counted by using a hemocytometer.

[1] = tested on: Trichomonas vaginalis (clinically isolated strain); assay: Effect on Trichomonas vaginalis, number of survived individuals after 96 hours culture (Example 3); type: cell-based; conditions: for Number of survived individuals of Trichomonas: after 0.22 μm sterilizing filtration, cultured 96 hours
Text: The effect on Trichomonas vaginalis (clinically isolated strain) of the crystal was investigated while being compared with a crystal having such a crystal habit that the (11-1) plane was the specific crystal growth plane. A solution of 10% ethanol/physiological saline was used as a control.
Crystal of Comparative Example described above was used as the crystal which had such a crystal habit that the (11-1) plane was the specific crystal growth plane. Crystal 2 was used as the crystal which had such a crystal habit that the (011) plane was the specific crystal growth plane.
Each of the crystals of luliconazole was weighed in an amount of 7.02 mg to which 10 mL of ethanol was added to dissolve the crystal. After confirming the absence of the crystal by visual observation, 100 μL of the solution was used as an aliquot, and 900 μL of physiological saline was added thereto. The resultant solution was subjected to the sterilizing filtration by using a filter having a pore size of 0.22 μm to provide a sample of 5.02 μg/mL (final concentration). 250 μL of an aliquot was taken therefrom, to which 250 μL of 10% ethanol/physiological saline was added to provide a sample of 2.51 μg/mL (final concentration).
0.5 mL of each of the samples was added to “Trichomonas medium F” (produced by Fuji Pharma Co., Ltd.), and 100 μL of Trichomonas culture (5×10^3 individuals of Trichomonas) was added thereto, followed by being cultured for 96 hours. After performing cooling for 10 minutes in ice water, the medium was stirred, which was spread on a hemocytometer to count a number of survived individuals of Trichomonas. As for a control, 0.5 mL of 10% ethanol/physiological saline was added in place of the sample. […] Further, according to the fact that the peak area ratio of the (011) plane was 26%, it is possible to estimate and acknowledge that the effect as described above is provided if I(011) with respect to the sum total of I(001), I(100), I(10-1), I(011), I(110), I(11-1), I(10-2), I(11-2), I(020), I(021), I(20-2), I(121), I(013), I(11-3), and I(221) is not less than 25%, provided that integrated intensities of diffraction peaks, which correspond to the (001), (100), (10-1), (011), (110), (11-1), (10-2), (11-2), (020), (021), (20-2), (121), (013), (11-3), and (221) planes, are designated as I(001), I(100), I(10-1), I(011), I(110), I(11-1), I(10-2), I(11-2), I(020), I(021), I(20-2), I(121), I(013), I(11-3), and I(221) respectively in relation to the diffraction peaks detected in a range of 2θ=5 to 35° in a powder X-ray diffraction pattern in which CuKα is used as an X-ray source.

[2] = sample 2.51 μg/mL (final concentration)
[3] = sample 5.02 μg/mL (final concentration)

Structure (SMILES) | anti-Trichomonas effect (Trichomonas; Crystal 1 compared with Crystal 2) | Number of survived protozoa (Trichomonas; final concentration 2.4 μg/mL) | Number of survived protozoa (Trichomonas; final concentration 4.8 μg/mL) | Number of survived protozoa (Trichomonas; final concentration 9.6 μg/mL) | suppression of the growth of Trichomonas in the vicinity of MIC ([1]; compared with the crystal having the (11-1) plane as specific crystal growth plane) | Number of survived individuals of Trichomonas [1, 2] | Number of survived individuals of Trichomonas [1, 3]
N#C/C(=C1/SC[C@@H](c2ccc(Cl)cc2Cl)S1)n1ccnc1 [Crystal 1, luliconazole] | more excellent than that of Crystal 2 | 5.57 ± 0.42 100000 individuals/mL | 0 100000 individuals/mL | 0 100000 individuals/mL | – | – | –
N#C/C(=C1/SC[C@@H](c2ccc(Cl)cc2Cl)S1)n1ccnc1 [Crystal 2, luliconazole] | – | 6.57 ± 0.60 100000 individuals/mL | 0 100000 individuals/mL | 0 100000 individuals/mL | significantly excellent | 23333 ± 5773 individuals/mL | 23333 ± 5773 individuals/mL
N#C/C(=C1/SC[C@@H](c2ccc(Cl)cc2Cl)S1)n1ccnc1 [Crystal of Comp. Ex., luliconazole, reference compound] | – | – | – | – | – | 116667 ± 15275 individuals/mL | 23333 ± 5773 individuals/mL
